Source: patent publication US10800732B2, “Substituted malonamides and their use as antibacterial drugs” (National Taiwan University, priority 2015, dated 2020)

Columns and labels:
[1] = tested on: Escherichia coli ATCC 25922; assay: MIC, Escherichia coli; type: cell-based; details: ATCC25922
MRSA (ATCC 43300) = assay: Minimal biofilm eradication concentration, MRSA in the biofilm; type: cell-based, methicillin-resistant Staphylococcus aureus; details: MRSA (ATCC 43300) in the biofilm
Method: A biofilm is composed of attached microorganisms enclosed in an extracellular polymeric substance matrix. Bacteria embedded in the biofilm are protected from antibiotic-mediated killing and the immune response. Reports have shown that biofilm formation is an important factor contributing to S. aureus infections of the skin, lung and indwelling medical devices such as catheters. Thus, the effect of SC5005 on MRSA in a biofilm was assayed.

S. aureus NCTC 8325 = assay: Intracellular ATP leakage (ATPlite one-step); type: cell-based, Staphylococcus aureus; details: 4×MIC for 15 min
Method: FIG. 6. Intracellular ATP leakage of S. aureus treated with SC5005, SC5035 and antibiotics. […] Data was presented as percentage of intracellular ATP level to that of untreated bacteria cells (considered as 100%). Bars represent the mean, and error bars represent the SD (n=3). ***: p-value <0.001
To investigate whether SC5005 and SC5035 also act on bacterial cell membrane, intracellular ATP levels of S. aureus treated with SC5005, SC5035 and antibiotics for 15 min was determined by using ATPlite one-step assay kit.

SMILES	MIC [1]	MBEC (MRSA (ATCC 43300))	intracellular ATP levels (S. aureus NCTC 8325)
O=C(Nc1ccc(Cl)c(C(F)(F)F)c1)Nc1ccc(Cl)c(C(F)(F)F)c1 [SC78]	> 64 µg/mL	–	–
O=C(Nc1ccc(Cl)c(C(F)(F)F)c1)C(CCCl)C(=O)Nc1ccc(Cl)c(C(F)(F)F)c1 [SC5005]	–	16 mg/L	significantly dropped
